The structures appear in SMILES notation.

This is an account of results in patent US20260078119A1, “DEGRADER COMPOUNDS AND USES THEREOF” (Bristol-Myers Squibb Company, priority 2024, published 2026).

The target in assay [1] is T1, FAK (Homo sapiens, UniProt Q05397).
T1 construct: homozygous knock-in of a HiBiT tag (Promega Corporation, Madison, WI) to the C-terminus of the FAK gene in its natural genomic locus; endogenous in cells; host or cells: JHH-4-FAK-HiBiT clone d01 (CRISPR-Cas9 knock-in at the endogenous locus)
T1 sequence (Q05397 whole entry): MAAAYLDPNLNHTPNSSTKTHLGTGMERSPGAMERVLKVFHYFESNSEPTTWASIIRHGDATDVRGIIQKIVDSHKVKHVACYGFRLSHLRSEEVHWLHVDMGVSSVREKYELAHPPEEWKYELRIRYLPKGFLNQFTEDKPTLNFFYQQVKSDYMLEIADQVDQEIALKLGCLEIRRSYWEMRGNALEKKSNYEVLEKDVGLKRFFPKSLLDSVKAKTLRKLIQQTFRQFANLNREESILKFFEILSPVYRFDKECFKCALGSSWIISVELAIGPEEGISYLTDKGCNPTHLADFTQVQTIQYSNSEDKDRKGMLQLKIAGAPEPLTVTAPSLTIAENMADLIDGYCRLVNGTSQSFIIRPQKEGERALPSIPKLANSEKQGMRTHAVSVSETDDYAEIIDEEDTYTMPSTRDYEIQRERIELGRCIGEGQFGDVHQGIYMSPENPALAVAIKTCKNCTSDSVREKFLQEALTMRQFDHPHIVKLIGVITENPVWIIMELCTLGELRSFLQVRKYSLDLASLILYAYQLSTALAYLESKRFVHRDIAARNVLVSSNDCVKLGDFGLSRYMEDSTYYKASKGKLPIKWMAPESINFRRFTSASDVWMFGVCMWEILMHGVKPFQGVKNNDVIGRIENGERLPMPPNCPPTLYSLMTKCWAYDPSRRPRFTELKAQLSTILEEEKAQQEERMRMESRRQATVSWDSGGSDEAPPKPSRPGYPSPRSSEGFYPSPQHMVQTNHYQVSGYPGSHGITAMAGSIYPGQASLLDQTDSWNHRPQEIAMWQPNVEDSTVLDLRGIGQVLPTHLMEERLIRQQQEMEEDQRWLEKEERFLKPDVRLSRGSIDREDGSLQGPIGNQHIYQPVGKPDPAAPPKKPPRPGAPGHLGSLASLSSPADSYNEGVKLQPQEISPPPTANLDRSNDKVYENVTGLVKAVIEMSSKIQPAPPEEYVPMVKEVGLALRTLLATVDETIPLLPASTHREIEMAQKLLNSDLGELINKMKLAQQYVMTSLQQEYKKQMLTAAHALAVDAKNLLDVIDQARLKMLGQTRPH
Nature of the assay: FAK-HiBiT Degradation Assay. It is filed as cell-based. To be noted: for DC50: JHH-4-FAK-HiBiT clone d01 cells, two hours incubation, 10-point dose response, 3-fold dilution starting at 1 μM, Nano-Glo HiBiT luminescence, read-out: FAK HiBiT EC50; for FAK HiBiT Ymin: lower limit of the four parameter fit (value A), Ymax derived using DMSO control, JHH-4-FAK-HiBiT cells, two hours. The text has this:
To generate JHH-4-FAK-HiBiT cells for the FAK degradation assay, JHH-4 cells (Japanese Collection of Research Biosources Cell Bank, Japan) were transfected with ribonucleoprotein reagents to introduce, by CRISPR-Cas9 editing, the homozygous knock-in of a HiBiT tag (Promega Corporation, Madison, WI) to the C-terminus of the FAK gene in its natural genomic locus. Clonal cell populations were established by expanding single cells after CRISPR-Cas9 editing, with a clonal cell line named JHH-4-FAK-HiBiT clone d01 confirmed by next generation DNA sequencing to contain the expected HiBiT edited FAK gene and was selected for FAK degradation screening. Cells were selected and maintained in complete DMEM media (DMEM, 10% Heat Inactivated FBS, and Non-Essential Amino Acids at 37° C. and 5% CO2). Cells were passaged every 3-4 days by reseeding 0.5×10^6 cells in a T75 flask.
Cells were dispensed into 384-well white plates (Corning #3570, NY) that were pre-spotted with compounds using an acoustic dispenser (Echo acoustic transfer system, Beckman Coulter Life Sciences, Carlsbad, CA) as a 10-point dose response curve with a 3-fold dilution starting at 1 μM and including a DMSO control. Twenty-five microliters of media containing 2000 JHH-4-FAK-HiBiT Clone d01 cells was dispensed per well. Assay plates were incubated at 37° C. with 5% CO2 for two hours. After incubation, 25 μL of Nano-Glo HiBiT Lytic Reagent Working Solution (Promega Corporation, Madison, WI) was added to each well and incubated at room temperature for 10 minutes protected from light. After 10 minutes, luminescence was read on a PHERAstar luminometer (BMG Labtech, Cary, NC).
To determine the half-maximal effective concentration (EC50) values for FAK-HiBIT degradation, a four parameter logistic model was used: (Sigmoidal Dose-Response Model)(FIT=(A+((B−A)/1+((C/x)^D)))) where C is the inflection point (EC50), D is the Hill slope, and A and B are the low and high limits of the fit respectively). The lower limit of the fit (value A) is referred to as Ymin. The maximum limit constraint, Ymax, was derived using DMSO control. The curves were processed and evaluated using Dotmatics Atlas (Insightful Science, LLC, Boston, MA).
For orientation: With HiBiT, luminescence reflects the tagged protein that the partner subunit can reach.

Assay [2] deals with CAL-51 cells. The assay can be described thus: CAL-51 Cell Proliferation Assay. To be noted: for EC50: Homo sapiens, 120 hours incubation, 10-point dose response, 4-fold dilutions starting at 10 μM, Cell-Titer-Glo, read-out: CAL-51 Prolif EC50; for CAL-51 Prolif Ymin: minimal percent of DMSO control observed in the concentrations tested (Ymin-obs), 120 hours. The class given is cell-based. The text has this:
CAL-51 cells were obtained from Bristol Myers Squibb internal cell banks (originally sourced from DSMZ-German Collection of Microorganisms and Cell Cultures GmbH, Germany) and cultured in RPMI complete media (RPMI-1640, 10% Fetal Bovine serum, 1× Antibiotic-Antimycotic, and 1× Non-Essential Amino Acids). Compounds were dispensed into 384-well plates using an acoustic dispenser (Beckman Coulter Life Sciences, Carlsbad, CA) in duplicate with 14 compounds on each plate. For each compound, a 10-point dose response was printed at 4-fold dilutions starting at 10 μM. The DMSO concentration was kept constant for a final assay concentration of 0.1% per well assuming 50 uL final media volume. Compound plates were sealed and frozen at −20° C. until use.
For each assay batch, compound plates were thawed and allowed to reach room temperature, and cells were seeded at 350 cells per well in 50 μl complete RPMI media. After 120 hours of incubation at 37° C. and 5% CO2, cells were lysed by addition of 25 μL of Cell-Titer-Glo Reagent (Promega Corporation, Madison, WI), as per manufacturer's instructions, protected from light, shaken for 20 minutes, and total luminescence read by a CLARIOstar Plus plate reader (BMG LabTech, Cary, NC). Total luminescence signal is linearly correlated with cell number remaining in the well.
Luminescence data was processed per plate by subtracting reagent-only “blank” well luminescence from all measured values and calculating a percent of DMSO control value for each treatment well. Then, to determine the half-maximal effective concentration (EC50) values for cell growth inhibition, a four parameter logistic model was fit to the data for each DMSO-normalized compound: Sigmoidal Dose-Response Model: (FIT=(A+((B−A)/1+((C/x)^D)))) where C is the inflection point (EC50), D is the Hill slope, and A and B are the low and high limits of the fit respectively. The lower limit of the fit (value A) is referred to as Ymin-calculated. The minimal percent of DMSO control that is observed in the concentrations tested for each compound is labeled as “Ymin-obs”, and was recorded and reported in the tables. Sigmoidal fit curves were processed and evaluated using Dotmatics Atlas (Insightful Science, LLC, Boston, MA).

As to `N#Cc1ccc(-c2c(Cl)c(N3CC(F)C3)nc3c2cnn3Cc2ccc3c(c2)CN(C2CCC(=O)NC2=O)C3=O)c(F)c1` (centres unmarked) [Example 10, 4-(5-chloro-1-{[2-(2,6-dioxopiperidin-3-yl)-1-oxo-2,3-dihydro-1H-isoindol-5-yl]methyl}-6-(3-fluoroazetidin-1-yl)-1H-pyrazolo[3,4-b]pyridin-4-yl)-3-fluorobenzonitrile], in assay [1], the DC50 was 0.56 nM and the “FAK HiBiT Ymin” value is 6.93. In assay [2], the EC50 (in general, the midpoint of the concentration-response curve) was found to be 75.4 nM and the “CAL-51 Prolif Ymin” value is reported as 33.21.

As for `CN1CCC(Nc2cc(-c3ncc(C(F)(F)F)cc3Cl)c3cnn(Cc4ccc5c(c4)CN(C4CCC(=O)NC4=O)C5=O)c3n2)C1` (centres unmarked) [Example 128, 3-[5-({4-[3-chloro-5-(trifluoromethyl)pyridin-2-yl]-6-[(1-methylpyrrolidin-3-yl)amino]-1H-pyrazolo[3,4-b]pyridin-1-yl}methyl)-1-oxo-2,3-dihydro-1H-isoindol-2-yl]piperidine-2,6-dione], in assay [1], the DC50 turned out to be 292 nM and the “FAK HiBiT Ymin” value stood at 58.00. In assay [2], the concentration for a half-maximal effect (EC50) was 191 nM and the “CAL-51 Prolif Ymin” value came to 83.49.

For `O=C1CCC(N2Cc3c(ccc(Cn4ncc5c(-c6ncc(C(F)(F)F)cc6Cl)cc(N6CC(F)C6)nc54)c3F)C2=O)C(=O)N1` (centres unmarked) [Example 40, 3-[5-({4-[3-chloro-5-(trifluoromethyl)pyridin-2-yl]-6-(3-fluoroazetidin-1-yl)-1H-pyrazolo[3,4-b]pyridin-1-yl}methyl)-4-fluoro-1-oxo-2,3-dihydro-1H-isoindol-2-yl]piperidine-2,6-dione], in assay [1], the DC50 was found to be 1.15 nM and the “FAK HiBiT Ymin” value is reported as 6.87. For the same compound, in assay [2], the EC50 stood at 11.2 nM and the “CAL-51 Prolif Ymin” value turned out to be 36.00.

Regarding `O=C1CCC(N2Cc3cc(Cn4ncc5c(-c6ncc(C(F)(F)F)cc6Cl)cc(N6CCCC6)nc54)ccc3C2=O)C(=O)N1` (centres unmarked) [Example 11, 3-[5-({4-[3-chloro-5-(trifluoromethyl)pyridin-2-yl]-6-(pyrrolidin-1-yl)-1H-pyrazolo[3,4-b]pyridin-1-yl}methyl)-1-oxo-2,3-dihydro-1H-isoindol-2-yl]piperidine-2,6-dione], in assay [1], the DC50 worked out at 0.64 nM and the “FAK HiBiT Ymin” value is listed as 6.28. In assay [2], the EC50 worked out at 0.34 nM and the “CAL-51 Prolif Ymin” value is listed as 22.89.

For `CCOc1cnc(-c2c(Cl)c(N3CC(F)C3)nc3c2cnn3Cc2ccc3c(c2)CN([C@H]2CCC(=O)NC2=O)C3=O)c(C(F)(F)F)c1` [Example 4, (3S)-3-[5-({5-chloro-4-[5-ethoxy-3-(trifluoromethyl)pyridin-2-yl]-6-(3-fluoroazetidin-1-yl)-1H-pyrazolo[3,4-b]pyridin-1-yl}methyl)-1-oxo-2,3-dihydro-1H-isoindol-2-yl]piperidine-2,6-dione], in assay [1], the DC50 was 0.42 nM and the “FAK HiBiT Ymin” value came to 7.37. Also, in assay [2], the EC50 was determined as 0.52 nM and the “CAL-51 Prolif Ymin” value was found to be 1.90.

For `Cc1cc(OC(C)C)cnc1-c1cc(N2CC(F)C2)nc2c1cnn2Cc1ccc2c(c1)CN(C1CCC(=O)NC1=O)C2=O` (centres unmarked) [Example 80, 3-(5-{[6-(3-fluoroazetidin-1-yl)-4-[3-methyl-5-(propan-2-yloxy)pyridin-2-yl]-1H-pyrazolo[3,4-b]pyridin-1-yl]methyl}-1-oxo-2,3-dihydro-1H-isoindol-2-yl)piperidine-2,6-dione], in assay [1], the DC50 came out at 9.06 nM and the “FAK HiBiT Ymin” value stood at 5.83. In assay [2], the EC50 was found to be 1.68 nM and the “CAL-51 Prolif Ymin” value amounted to 27.48.

In the case of `O=C1CC[C@H](N2Cc3cc(Cn4ncc5c(-c6ncc(C(F)(F)F)cc6Cl)cc(N6CCOCC6)nc54)ccc3C2=O)C(=O)N1` [Example 131, (3S)-3-[5-({4-[3-chloro-5-(trifluoromethyl)pyridin-2-yl]-6-(morpholin-4-yl)-1H-pyrazolo[3,4-b]pyridin-1-yl}methyl)-1-oxo-2,3-dihydro-1H-isoindol-2-yl]piperidine-2,6-dione], in assay [1], the DC50 is at least 1000 nM and the “FAK HiBiT Ymin” value is recorded as 92.07. In assay [2], the EC50 came out at 3.1 nM and the “CAL-51 Prolif Ymin” value was found to be 59.06.

In the case of `Cc1nc2c(-c3ncc(F)cc3Cl)cc(N3CC(F)C3)nc2n1Cc1ccc2c(c1)CN(C1CCC(=O)NC1=O)C2=O` (centres unmarked) [Example 24, 3-(5-((7-(3-chloro-5-fluoropyridin-2-yl)-5-(3-fluoroazetidin-1-yl)-2-methyl-3H-imidazo[4,5-b]pyridin-3-yl)methyl)-1-oxoisoindolin-2-yl)piperidine-2,6-dione], in assay [1], the DC50 is 29.6 nM and the “FAK HiBiT Ymin” value was determined as 5.76. In assay [2], the EC50 amounted to 4.05 nM and the “CAL-51 Prolif Ymin” value amounted to 23.72.

On to `Cc1cc(C#N)cnc1-c1cc(N2CC(F)C2)nc2c1cnn2Cc1ccc2c(c1)CN(C1CCC(=O)NC1=O)C2=O` (centres unmarked) [Example 91, 6-(1-{[2-(2,6-dioxopiperidin-3-yl)-1-oxo-2,3-dihydro-1H-isoindol-5-yl]methyl}-6-(3-fluoroazetidin-1-yl)-1H-pyrazolo[3,4-b]pyridin-4-yl)-5-methylpyridine-3-carbonitrile], for which, in assay [1], the DC50 was 14.1 nM and the “FAK HiBiT Ymin” value came out at 8.03. For the same compound, in assay [2], the EC50 was determined as 7.78 nM and the “CAL-51 Prolif Ymin” value came out at 24.52.

For the compound `COc1cnc(-c2cc(N3CC(F)C3)nc3c2cnn3Cc2ccc3c(c2)CN(C2CCC(=O)NC2=O)C3=O)c(C)c1` (centres unmarked) [Example 97, 3-(5-{[6-(3-fluoroazetidin-1-yl)-4-(5-methoxy-3-methylpyridin-2-yl)-1H-pyrazolo[3,4-b]pyridin-1-yl]methyl}-1-oxo-2,3-dihydro-1H-isoindol-2-yl)piperidine-2,6-dione], in assay [1], the DC50 came to 22.9 nM and the “FAK HiBiT Ymin” value was 12.95. For the same compound, in assay [2], the EC50 was 14.4 nM and the “CAL-51 Prolif Ymin” value was 38.61.

In the case of `N#Cc1cnc(-c2cc(N3CC(F)C3)nc3c2cnn3Cc2ccc3c(c2)CN(C2CCC(=O)NC2=O)C3=O)c(Cl)c1` (centres unmarked) [Example 73, 5-chloro-6-(1-{[2-(2,6-dioxopiperidin-3-yl)-1-oxo-2,3-dihydro-1H-isoindol-5-yl]methyl}-6-(3-fluoroazetidin-1-yl)-1H-pyrazolo[3,4-b]pyridin-4-yl)pyridine-3-carbonitrile], in assay [1], the DC50 amounted to 6.62 nM and the “FAK HiBiT Ymin” value stood at 11.02. Further, in assay [2], the EC50 amounted to 3.39 nM and the “CAL-51 Prolif Ymin” value turned out to be 23.58.
